Values after ≈ are worked out from the molar mass of the structure shown. Residues, ends and D or L forms follow the SMILES beside them.
Columns and labels:
human NMUR1 receptor = biological target: T1, human NMUR1 receptor (Homo sapiens, UniProt Q9HB89); test: Radioligand binding competition assay (RLB), human NMUR1 receptor binding (SPA, [125I]-Neuromedin U-25); conditions: CHO-K1 hNMUR1 cell membranes, 4 hours at RT
T1 construct: host or cells: CHO-K1
T1 sequence (Q9HB89 24-426 limits assumed): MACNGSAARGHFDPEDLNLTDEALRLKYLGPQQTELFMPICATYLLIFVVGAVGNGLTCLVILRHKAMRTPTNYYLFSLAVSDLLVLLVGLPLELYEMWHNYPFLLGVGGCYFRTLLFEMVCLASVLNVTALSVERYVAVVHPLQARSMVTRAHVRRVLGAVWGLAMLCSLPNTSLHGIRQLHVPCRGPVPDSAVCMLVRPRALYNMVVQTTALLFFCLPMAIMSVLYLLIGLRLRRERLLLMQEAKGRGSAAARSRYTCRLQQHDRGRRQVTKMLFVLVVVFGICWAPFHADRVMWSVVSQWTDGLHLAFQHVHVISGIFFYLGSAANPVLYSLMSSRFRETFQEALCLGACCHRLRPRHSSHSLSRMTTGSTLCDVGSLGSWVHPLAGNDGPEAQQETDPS
Text: Example 2: Radioligand Binding Competition Assay (RLB) Human NMUR1 Receptor Binding 1) Membranes The test is based on membranes prepared from a human NMUR1/Apoaequorin Stable Cell Line (Creative Biogene, Cat. No. CSC-RG1308). Cell Line Description: CHO-NMUR1 cell line is clonally-derived from a CHO-K1 cell line, which has been transfected with a bicistronic expression plasmid containing the sequence coding for the human neuromedin U receptor 1 (NM_006056.4, 180 to 1391). Mosaic-ID: CL16550614 Membrane preparation: Cells were broken by nitrogen cavitation (900 psi, 1 hour). Intact cells were removed by centrifugation (400 rcf, 10 minutes, 4° C.) before the crude membrane fraction was collected by ultracentrifugation (20.000 rcf, 1 hour, 4° C.). 2) Human NMUR1 Receptor Binding Assay (Radioligand: [125l]-Neuromedin U-25) In this Scintillation Proximity Assay (SPA) design, the membranes immobilize directly to the PVT-WGA-PEI type A beads (polyethyleneimine treated polyvinyltoluene beads coupled to wheatgerm agglutinin, Perkin Elmer) via interactions of wheat germ agglutinate and glycosylated membrane structures. Thereby the radioactively la-belled ligand, bound to NMUR1 receptors on the membrane, comes in close proximity to the solid scintillator of the PVT bead. Radioactive human neuromedin U-25 then stimulates the scintillant to emit light. In contrast, radioligand not bound to the receptor is too distant from the bead to elicit a signal. For the Scintillation Proximity Assay the CHO-K1 hNMUR1 cell membranes and SPA-beads are diluted to concentrations, which assure a robust signal to background ratio. The SPA incubation buffer consists of 25 mM Hepes (pH=7.0), 5 mM MgCl2, 1 mM CaCl2, 10 ug/mL Saponine and 0.1% bovine serum albumin and is used for all dilutions. Final assay setup in 96-well plate: 20 μL of 10× test compound dilutions+40 μL of 5× [125l]-Neuromedin U-25 (1× approx. 30 pM; 2000 μCi/mmol (μCi=microcurie))+60 μL membrane dilution (approx. 1.0 μg membrane protein)+80 μL SPA bead dilution (250 μg). The assay is incubated for 4 hours at RT, including controls for specific binding where no displacer is added and non-specific binding by adding unlabeled hNMU-25 at 100 nM. Bound radioactivity is determined by scintillation counting (MicroBeta Trilux 1450, Perkin Elmer, detection of 125I decay). […] The system assumes one binding site with no relevant radioligand depletion (<10%) and that the binding is reversible and at equilibrium. [formula] [formula]

physchem = assay type: physicochemical; conditions: pH 7.5
Method: Example 6: Solubility Determination
Peptides (as TFA-salts) were weighed out in a filter unit (Mini-UniPrep Syringeless Filter 0.45 μm, Whatman PVDF), and 0.1 M phosphate buffer at pH 6 to 8 was added to achieve 10 mg/mL final peptide concentration. The peptides were dissolved by shaking the filter units horizontally at 350 rpm for 2 hours at room temperature. Samples were then filtered to remove any insoluble particles. Controls were prepared by weighing out the corresponding peptide solid material and dissolving it in an appropriate vehicle (e.g. buffer or DMSO) to a final concentration of 1 mg/mL. Both, the control and sample were analyzed by reversed phase chromatography. The area under the peak of the sample was compared to the control and the solubility was calculated based on that ratio. The pH was measured and recorded for each sample.

human NMUR2 receptor = human NMUR2 receptor (Homo sapiens, UniProt Q9GZQ4); test: IP1 Gq HTRF assay, activation of human NMUR2 in human plasma; assay type: cell-based; parameters: expressed in transfected cells; host or cells: CHO-K1; conditions: CHO-K1 cells expressing human NMUR2, 100% human plasma; read-out: EC50 (hNMUR2) human plasma
Sequence of human NMUR2 receptor (Q9GZQ4 whole entry): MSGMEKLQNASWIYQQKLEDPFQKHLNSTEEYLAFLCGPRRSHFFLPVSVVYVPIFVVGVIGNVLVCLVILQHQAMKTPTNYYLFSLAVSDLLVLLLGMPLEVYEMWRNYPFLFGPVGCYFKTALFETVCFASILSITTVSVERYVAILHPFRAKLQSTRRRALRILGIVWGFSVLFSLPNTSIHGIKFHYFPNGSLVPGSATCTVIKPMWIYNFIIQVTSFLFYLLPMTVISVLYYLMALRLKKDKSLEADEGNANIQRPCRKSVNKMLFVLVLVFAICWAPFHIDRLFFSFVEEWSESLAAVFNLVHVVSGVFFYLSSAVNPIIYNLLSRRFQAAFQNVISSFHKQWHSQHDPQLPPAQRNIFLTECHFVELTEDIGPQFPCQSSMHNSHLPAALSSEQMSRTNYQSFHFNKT
How it was run: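 EC50 obtained via 4-parameter sigmoidal regression of HTRF IP-One signal (665 nm/620 nm), which falls as intracellular IP1 rises. Stimulation: 1 h, 37° C, peptides in human plasma plus 50 mM LiCl, 1% DMSO final, on NMUR2-expressing CHO-K1 cells, 8 concentrations.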

## CCCC[C@H](NC(=O)[C@H](CC(C)C)N(C)C(=O)[C@H](Cc1ccccc1)NC(=O)[C@H](Cc1ccc(O)cc1)NC(=O)CN1CCN(CCNC(=O)CN(C)C(=O)CN(C)C(=O)CN(C)C(=O)CN(C)C(=O)CN(C)C(=O)CN(C)C(=O)CN(C)C(=O)CN(C)C(=O)CN(C)C(=O)CN(C)C(=O)CN(C)C(=O)CN(C)C(=O)CN(C)C(=O)CN(C)C(=O)CN(C)C(=O)CC[C@H](NC(=O)CC[C@H](NC(=O)CC[C@H](NC(=O)CCCCCCCCCCCCCCCCCCC(=O)O)C(=O)O)C(=O)O)C(=O)O)CC1)C(=O)N[C@@H](CCCN)C(=O)N1CCC[C@H]1C(=O)N[C@@H](CCCNC(=N)N)C(=O)NCC(N)=O [Compound 1, C20DA-gGlu3-Sar15-AEPipAc-Tyr-Phe-NMeLeu-Nle-Orn-Pro-Arg-Gly-NH2] (HELM PEPTIDE1{[O=C(O)CCCCCCCCCCCCCCCCCCC(=O)[*:2]].[gGlu].[gGlu].[gGlu].[Sar].[Sar].[Sar].[Sar].[Sar].[Sar].[Sar].[Sar].[Sar].[Sar].[Sar].[Sar].[Sar].[Sar].[Sar].[O=C(CN1CCN(CCN[*:1])CC1)[*:2]].Y.F.[meL].[Nle].[Orn].P.R.G.[am]}$$$$V2.0)
Human NMUR1 receptor
  Ki: > 10000 nM
physchem
  solubility at 2 h: 8200 µg/mL (≈ 2790 µM)
Human NMUR2 receptor
  EC50: 2.8 nM

## CCCC[C@H](NC(=O)[C@H](CC(C)C)N(C)C(=O)[C@H](Cc1ccccc1)NC(=O)[C@H](Cc1ccc(O)cc1)NC(=O)CN1CCN(CCNC(=O)CN(C)C(=O)CN(C)C(=O)CN(C)C(=O)CN(C)C(=O)CN(C)C(=O)CN(C)C(=O)CN(C)C(=O)CN(C)C(=O)CN(C)C(=O)CN(C)C(=O)CN(C)C(=O)CN(C)C(=O)CN(C)C(=O)CN(C)C(=O)CN(C)C(=O)CC[C@H](NC(=O)CC[C@H](NC(=O)CC[C@H](NC(=O)CCCCCCCCCCCCCCCCCCC(=O)O)C(=O)O)C(=O)O)C(=O)O)CC1)C(=O)N[C@@H](CCCNC(=N)N)C(=O)N1CCC[C@H]1C(=O)N[C@@H](CCCNC(=N)N)C(=O)NCC(N)=O [Compound 9, C20DA-gGlu3-Sar15-AEPipAc-Tyr-Phe-NMeLeu-Nle-Arg-Pro-Arg-Gly-NH2] (HELM PEPTIDE1{[O=C(O)CCCCCCCCCCCCCCCCCCC(=O)[*:2]].[gGlu].[gGlu].[gGlu].[Sar].[Sar].[Sar].[Sar].[Sar].[Sar].[Sar].[Sar].[Sar].[Sar].[Sar].[Sar].[Sar].[Sar].[Sar].[O=C(CN1CCN(CCN[*:1])CC1)[*:2]].Y.F.[meL].[Nle].R.P.R.G.[am]}$$$$V2.0)
Human NMUR1 receptor
  Ki: > 10000 nM
Human NMUR2 receptor
  EC50: 5.8 nM

## CCCC[C@H](NC(=O)[C@H](CC(C)C)N(C)C(=O)[C@H](Cc1ccccc1)NC(=O)[C@H](Cc1ccc(O)cc1)NC(=O)CN1CCN(CCNC(=O)CN(C)C(=O)CN(C)C(=O)CN(C)C(=O)CN(C)C(=O)CN(C)C(=O)CN(C)C(=O)CN(C)C(=O)CN(C)C(=O)CN(C)C(=O)CN(C)C(=O)CN(C)C(=O)CN(C)C(=O)CN(C)C(=O)CN(C)C(=O)CN(C)C(=O)CC[C@H](NC(=O)CC[C@H](NC(=O)CC[C@H](NC(=O)CCCCCCCCCCCCCCCCCCC(=O)O)C(=O)O)C(=O)O)C(=O)O)CC1)C(=O)N[C@@H](CCCNC(=N)N)C(=O)N(C)[C@@H](C)C(=O)N[C@@H](CCCNC(=N)N)C(=O)NCC(N)=O [Compound 10, C20DA-gGlu3-Sar15-AEPipAc-Tyr-Phe-NMeLeu-Nle-Arg-NMeAla-Arg-Gly-NH2] (HELM PEPTIDE1{[O=C(O)CCCCCCCCCCCCCCCCCCC(=O)[*:2]].[gGlu].[gGlu].[gGlu].[Sar].[Sar].[Sar].[Sar].[Sar].[Sar].[Sar].[Sar].[Sar].[Sar].[Sar].[Sar].[Sar].[Sar].[Sar].[O=C(CN1CCN(CCN[*:1])CC1)[*:2]].Y.F.[meL].[Nle].R.[meA].R.G.[am]}$$$$V2.0)
Human NMUR1 receptor
  Ki: > 10000 nM
Human NMUR2 receptor
  EC50: 9.8 nM

## CCCC[C@H](NC(=O)[C@H](CC(C)C)N(C)C(=O)[C@H](Cc1ccccc1)NC(=O)[C@H](Cc1ccc(O)cc1)NC(=O)CN1CCN(CCNC(=O)CN(C)C(=O)CN(C)C(=O)CN(C)C(=O)CN(C)C(=O)CN(C)C(=O)CN(C)C(=O)CN(C)C(=O)CN(C)C(=O)CN(C)C(=O)CN(C)C(=O)CN(C)C(=O)CN(C)C(=O)CN(C)C(=O)CN(C)C(=O)CN(C)C(=O)CC[C@H](NC(=O)CC[C@H](NC(=O)CC[C@H](NC(=O)CCCCCCCCCCCCCCCCC(=O)O)C(=O)O)C(=O)O)C(=O)O)CC1)C(=O)N[C@@H](CCCNC(=N)N)C(=O)N(C)[C@@H](C)C(=O)N[C@@H](CCCNC(=N)N)C(=O)NCC(N)=O [Compound 11, C18DA-gGlu3-Sar15-AEPipAc-Tyr-Phe-NMeLeu-Nle-Arg-NMeAla-Arg-Gly-NH2] (HELM PEPTIDE1{[O=C(O)CCCCCCCCCCCCCCCCC(=O)[*:2]].[gGlu].[gGlu].[gGlu].[Sar].[Sar].[Sar].[Sar].[Sar].[Sar].[Sar].[Sar].[Sar].[Sar].[Sar].[Sar].[Sar].[Sar].[Sar].[O=C(CN1CCN(CCN[*:1])CC1)[*:2]].Y.F.[meL].[Nle].R.[meA].R.G.[am]}$$$$V2.0)
Human NMUR1 receptor
  Ki: > 10000 nM
Human NMUR2 receptor
  EC50: 10.6 nM

## CCCC[C@H](NC(=O)[C@H](CC(C)C)N(C)C(=O)[C@H](Cc1ccccc1)NC(=O)[C@H](Cc1ccc(O)cc1)NC(=O)CN1CCN(CCNC(=O)CN(C)C(=O)CN(C)C(=O)CN(C)C(=O)CN(C)C(=O)CN(C)C(=O)CN(C)C(=O)CN(C)C(=O)CN(C)C(=O)CN(C)C(=O)CN(C)C(=O)CN(C)C(=O)CN(C)C(=O)CC[C@H](NC(=O)CC[C@H](NC(=O)CC[C@H](NC(=O)CCCCCCCCCCCCCCCCC(=O)O)C(=O)O)C(=O)O)C(=O)O)CC1)C(=O)N[C@@H](CCCNC(=N)N)C(=O)N(C)[C@@H](C)C(=O)N[C@@H](CCCNC(=N)N)C(=O)NCC(N)=O [Compound 12, C18DA-gGlu3-Sar12-AEPipAc-Tyr-Phe-NMeLeu-Nle-Arg-NMeAla-Arg-Gly-NH2]
Human NMUR1 receptor
  Ki: > 10000 nM
Human NMUR2 receptor
  EC50: 12.9 nM

## CCCC[C@H](NC(=O)[C@H](CC(C)C)N(C)C(=O)[C@H](Cc1ccccc1)NC(=O)[C@H](Cc1ccc(O)cc1)NC(=O)CN1CCN(CCNC(=O)CN(C)C(=O)CN(C)C(=O)CN(C)C(=O)CN(C)C(=O)CN(C)C(=O)CN(C)C(=O)CN(C)C(=O)CN(C)C(=O)CN(C)C(=O)CC[C@H](NC(=O)CC[C@H](NC(=O)CC[C@H](NC(=O)CCCCCCCCCCCCCCCCCCC(=O)O)C(=O)O)C(=O)O)C(=O)O)CC1)C(=O)N[C@@H](CCCNC(=N)N)C(=O)N1CCC[C@H]1C(=O)N[C@@H](CCCNC(=N)N)C(=O)NCC(N)=O [Compound 65, C20DA-gGlu3-Sar9-AEPipAc-Tyr-Phe-NMeLeu-Nle-Arg-Pro-Arg-Gly-NH2] (HELM PEPTIDE1{[O=C(O)CCCCCCCCCCCCCCCCCCC(=O)[*:2]].[gGlu].[gGlu].[gGlu].[Sar].[Sar].[Sar].[Sar].[Sar].[Sar].[Sar].[Sar].[Sar].[O=C(CN1CCN(CCN[*:1])CC1)[*:2]].Y.F.[meL].[Nle].R.P.R.G.[am]}$$$$V2.0)
Human NMUR1 receptor
  Ki: 722 nM
Human NMUR2 receptor
  EC50: 11.7 nM

From US20240279278A1, “NMU RECEPTOR 2 AGONISTS” (Boehringer Ingelheim International GmbH, priority 2023, published 2024)
